# Test system: late watergrass
# Test: Test Example 1: herbicidal activity, application before weed generation under submerged conditions (Table 16, symbol A)
# Type: in vivo, late watergrass (Echinochloa oryzicola)
# Conditions: amount of applied herbicide 320 g/ha
# Outline: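 Emulsion formulation, water-diluted to set dose, was put onto the flooded surface (4 cm depth, alluvial soil) the same day weeds were sown and 2.5-leaf rice transplanted. After 3 weeks at 25-30 °C under glass, each species was rated 0 (≤5% kill) to 5 (≥90% kill).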
row,Compound,"Herbicidal effect, A: late watergrass"
1,C=CCOc1ccc2c(-c3c(O)c(C)nn(C)c3=O)c(-c3ccccc3OC)sc2c1 [3-111],5 (Herbicidal rate of 90% or more (almost completely withered))
2,COc1ccccc1-c1sc2cc(C)c(C)cc2c1-c1c(O)c(C)nn(C)c1=O [5-090],3 (Herbicidal rate of 40% or more and less than 70%)

# Test system: late watergrass
# Test: Test Example 2: herbicidal activity, application during weed generation under submerged conditions (Table 17, symbol A)
# Type: in vivo, late watergrass (Echinochloa oryzicola)
# Conditions: AAH 320 g/ha; application during weed generation, submerged conditions
# Outline: (§1)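 Steps: fill Wagner pots with alluvial soil; add water to give 4 cm depth; sow the species mixed; grow under glass at 25–30° C.; at 1–2 leaves apply water-diluted emulsion formulation to the water surface at a fixed herbicide amount; score after 3 weeks.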
row,Compound,"herbicidal effect rating, A: late watergrass"
1,C=CCOc1ccc2c(-c3c(O)c(C)nn(C)c3=O)c(-c3ccccc3OC)sc2c1 [3-111],4 (Herbicidal rate of 70% or more and less than 90%)
2,COc1ccccc1-c1sc2cc(C)c(C)cc2c1-c1c(O)c(C)nn(C)c1=O [5-090],0 (Herbicidal rate of 5% or less (almost no effect))

# Test system: oval-leafed pondweed
# Test: Test Example 2: herbicidal activity, application during weed generation under submerged conditions (Table 17, symbol C)
# Type: in vivo, oval-leafed pondweed (Monochoria vaginalis)
# Conditions: AAH 320 g/ha; application during weed generation, submerged conditions
# Outline: as §1
row,Compound,"herbicidal effect rating, C: oval-leafed pondweed"
1,C=CCOc1ccc2c(-c3c(O)c(C)nn(C)c3=O)c(-c3ccccc3OC)sc2c1 [3-111],3 (Herbicidal rate of 40% or more and less than 70%)
2,COc1ccccc1-c1sc2cc(C)c(C)cc2c1-c1c(O)c(C)nn(C)c1=O [5-090],0 (Herbicidal rate of 5% or less (almost no effect))

# Test system: barnyard grass
# Test: Test Example 3: herbicidal effect by foliage application, Wagner pot (Table 18, symbol H)
# Type: in vivo, barnyard grass (Echinochloa crus-galli)
# Conditions: 320 g/ha
# Outline: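 Plants were sown in alluvial soil held under 0.1–0.5 cm standing water and grown 14 days in a greenhouse at 25–30 °C. An emulsifiable formulation, water-diluted to the set dose, was then sprayed onto the foliage, and effects were scored three weeks later using previously defined criteria.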
row,Compound,herbicidal effect on barnyard grass (H)
1,C=CCOc1ccc2c(-c3c(O)c(C)nn(C)c3=O)c(-c3ccccc3OC)sc2c1 [3-111],5 (Herbicidal rate of 90% or more (almost completely withered))
2,COc1ccccc1-c1sc2cc(C)c(C)cc2c1-c1c(O)c(C)nn(C)c1=O [5-090],5 (Herbicidal rate of 90% or more (almost completely withered))

# Test system: southern crabgrass
# Test: Test Example 4: herbicidal effect by soil treatment (Table 19, symbol F)
# Type: in vivo, southern crabgrass (Digitaria ciliaris)
# Conditions: amount of applied herbicide 320 g/ha
# Outline: (§2)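 Emulsion of test compound, water-diluted to predetermined amount, sprayed on soil after sowing (seed depth ~1.5 cm, sterilized diluvial soil). Greenhouse, 25–30° C. Effect graded at three weeks post-spray.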
row,Compound,"F: southern crabgrass, herbicidal effect grade"
1,C=CCOc1ccc2c(-c3c(O)c(C)nn(C)c3=O)c(-c3ccccc3OC)sc2c1 [3-111],5 (Herbicidal rate of 90% or more (almost completely withered))
2,COc1ccccc1-c1sc2cc(C)c(C)cc2c1-c1c(O)c(C)nn(C)c1=O [5-090],0 (Herbicidal rate of 5% or less (almost no effect))

# Test system: barnyard grass
# Test: Test Example 4: herbicidal effect by soil treatment (Table 19, symbol H)
# Type: in vivo, barnyard grass (Echinochloa crus-galli)
# Conditions: amount of applied herbicide 320 g/ha
# Outline: as §2
row,Compound,"H: barnyard grass, herbicidal effect grade"
1,C=CCOc1ccc2c(-c3c(O)c(C)nn(C)c3=O)c(-c3ccccc3OC)sc2c1 [3-111],4 (Herbicidal rate of 70% or more and less than 90%)
2,COc1ccccc1-c1sc2cc(C)c(C)cc2c1-c1c(O)c(C)nn(C)c1=O [5-090],0 (Herbicidal rate of 5% or less (almost no effect))

# Test system: blackgrass
# Test: Test Example 4: herbicidal effect by soil treatment (Table 19, symbol J)
# Type: in vivo, blackgrass (Alopecurus myosuroides)
# Conditions: amount of applied herbicide 320 g/ha
# Outline: as §2
row,Compound,"J: blackgrass, herbicidal effect grade"
1,COc1ccccc1-c1sc2cc(C)c(C)cc2c1-c1c(O)c(C)nn(C)c1=O [5-090],0 (Herbicidal rate of 5% or less (almost no effect))

# Test system: velvetleaf
# Test: Test Example 4: herbicidal effect by soil treatment (Table 19, symbol M)
# Type: in vivo, velvetleaf (Abutilon theophrasti)
# Conditions: amount of applied herbicide 320 g/ha
# Outline: as §2
row,Compound,"M: velvetleaf, herbicidal effect grade"
1,C=CCOc1ccc2c(-c3c(O)c(C)nn(C)c3=O)c(-c3ccccc3OC)sc2c1 [3-111],3 (Herbicidal rate of 40% or more and less than 70%)
2,COc1ccccc1-c1sc2cc(C)c(C)cc2c1-c1c(O)c(C)nn(C)c1=O [5-090],0 (Herbicidal rate of 5% or less (almost no effect))

# Test system: lambsquarters
# Test: Test Example 4: herbicidal effect by soil treatment (Table 19, symbol O)
# Type: in vivo, lambsquarters (Chenopodium album)
# Conditions: amount of applied herbicide 320 g/ha
# Outline: as §2
row,Compound,"O: lambsquarters, herbicidal effect grade"
1,C=CCOc1ccc2c(-c3c(O)c(C)nn(C)c3=O)c(-c3ccccc3OC)sc2c1 [3-111],5 (Herbicidal rate of 90% or more (almost completely withered))
2,COc1ccccc1-c1sc2cc(C)c(C)cc2c1-c1c(O)c(C)nn(C)c1=O [5-090],0 (Herbicidal rate of 5% or less (almost no effect))

# Test system: persian speedwell
# Test: Test Example 4: herbicidal effect by soil treatment (Table 19, symbol R)
# Type: in vivo, Persian speedwell (Veronica persica)
# Conditions: amount of applied herbicide 320 g/ha
# Outline: as §2
row,Compound,"R: persian speedwell, herbicidal effect grade"
1,C=CCOc1ccc2c(-c3c(O)c(C)nn(C)c3=O)c(-c3ccccc3OC)sc2c1 [3-111],5 (Herbicidal rate of 90% or more (almost completely withered))
2,COc1ccccc1-c1sc2cc(C)c(C)cc2c1-c1c(O)c(C)nn(C)c1=O [5-090],1 (Herbicidal rate of 5% or more and less than 20%)

# Test system: green foxtail
# Test: Test Example 5: herbicidal effect by foliage application, plastic box (Table 20, symbol G)
# Type: in vivo, green foxtail (Setaria viridis)
# Conditions: foliage application, 320 g/ha, three weeks after application
# Outline: (§3)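 Post-emergence foliar test in sterilized diluvial soil. Compound applied as water-diluted emulsion at a predetermined rate to 14-day-old plants; evaluation at three weeks.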
Compound,"G: green foxtail, herbicidal effect grade",herbicidal effect on green foxtail (G)
C=CCOc1ccc2c(-c3c(O)c(C)nn(C)c3=O)c(-c3ccccc3OC)sc2c1 [3-111],5 (Herbicidal rate of 90% or more (almost completely withered)),
COc1ccccc1-c1sc2cc(C)c(C)cc2c1-c1c(O)c(C)nn(C)c1=O [5-090],,5 (Herbicidal rate of 90% or more (almost completely withered))

# Test system: barnyard grass
# Test: Test Example 5: herbicidal effect by foliage application, plastic box (Table 20, symbol H)
# Type: in vivo, barnyard grass (Echinochloa crus-galli)
# Conditions: foliage application, 320 g/ha, three weeks after application
# Outline: as §3
Compound,"H: barnyard grass, herbicidal effect grade",herbicidal effect on barnyard grass (H)
C=CCOc1ccc2c(-c3c(O)c(C)nn(C)c3=O)c(-c3ccccc3OC)sc2c1 [3-111],5 (Herbicidal rate of 90% or more (almost completely withered)),
COc1ccccc1-c1sc2cc(C)c(C)cc2c1-c1c(O)c(C)nn(C)c1=O [5-090],,4 (Herbicidal rate of 70% or more and less than 90%)

# Test system: blackgrass
# Test: Test Example 5: herbicidal effect by foliage application, plastic box (Table 20, symbol J)
# Type: in vivo, blackgrass (Alopecurus myosuroides)
# Conditions: foliage application, 320 g/ha, three weeks after application
# Outline: as §3
Compound,"J: blackgrass, herbicidal effect grade",herbicidal effect on blackgrass (J)
C=CCOc1ccc2c(-c3c(O)c(C)nn(C)c3=O)c(-c3ccccc3OC)sc2c1 [3-111],5 (Herbicidal rate of 90% or more (almost completely withered)),
COc1ccccc1-c1sc2cc(C)c(C)cc2c1-c1c(O)c(C)nn(C)c1=O [5-090],,4 (Herbicidal rate of 70% or more and less than 90%)

# Test system: Italian ryegrass
# Test: Test Example 5: herbicidal effect by foliage application, plastic box (Table 20, symbol K)
# Type: in vivo, Italian ryegrass (Lolium multiflorum)
# Conditions: foliage application, 320 g/ha, three weeks after application
# Outline: as §3
Compound,"K: Italian ryegrass, herbicidal effect grade",herbicidal effect on Italian ryegrass (K)
C=CCOc1ccc2c(-c3c(O)c(C)nn(C)c3=O)c(-c3ccccc3OC)sc2c1 [3-111],5 (Herbicidal rate of 90% or more (almost completely withered)),
COc1ccccc1-c1sc2cc(C)c(C)cc2c1-c1c(O)c(C)nn(C)c1=O [5-090],,5 (Herbicidal rate of 90% or more (almost completely withered))

# Test system: velvetleaf
# Test: Test Example 5: herbicidal effect by foliage application, plastic box (Table 20, symbol M)
# Type: in vivo, velvetleaf (Abutilon theophrasti)
# Conditions: foliage application, 320 g/ha, three weeks after application
# Outline: as §3
Compound,"M: velvetleaf, herbicidal effect grade",herbicidal effect on velvetleaf (M)
C=CCOc1ccc2c(-c3c(O)c(C)nn(C)c3=O)c(-c3ccccc3OC)sc2c1 [3-111],5 (Herbicidal rate of 90% or more (almost completely withered)),
COc1ccccc1-c1sc2cc(C)c(C)cc2c1-c1c(O)c(C)nn(C)c1=O [5-090],,5 (Herbicidal rate of 90% or more (almost completely withered))

# Test system: chickweed
# Test: Test Example 5: herbicidal effect by foliage application, plastic box (Table 20, symbol P)
# Type: in vivo, common chickweed (Stellaria media)
# Conditions: foliage application, 320 g/ha, three weeks after application
# Outline: as §3
row,Compound,"P: chickweed, herbicidal effect grade"
1,C=CCOc1ccc2c(-c3c(O)c(C)nn(C)c3=O)c(-c3ccccc3OC)sc2c1 [3-111],5 (Herbicidal rate of 90% or more (almost completely withered))

# Reference: patent US20230085307A1, “PYRIDAZINONE COMPOUND AND HERBICIDE” (NISSAN CHEMICAL CORPORATION, priority 2019, published 2023)
